Assay results reported in US20220313620A1, “COMPOSITION FOR PREVENTING AND TREATING TAUOPATHIES” (SERVICIO ANDALUZ DE SALUD, priority 2019, published 2022).

How the values were obtained:
tau protein = assay: Hippocampal tau phosphorylation and total tau (western blot) after 10 days of oral drinking; type: in vivo, Wistar rats; conditions: oral by drinking 100 mg/Kg for 10 days, hippocampus
Protocol: (§1) Animal experimental procedures were carried out in accordance with the European Communities directive 2010/63/EU and Spanish legislation (Real Decreto 53/2013). The protocol was approved by the Research and approved by Ethics Committee for Animal Experiments of the University of Malaga, Spain. In accordance with the ARRIVE guidelines, all efforts were made to minimize animal suffering and to reduce the number of animals used per experimental group. Chronic drinking experiments on Wistar rats were performed on 20 male rats. All adult rats, ageing 2 months (≈300 g of body weight), were provided by Charles River Laboratories (Barcelona, Spain). The animals were housed individually under a standard 12 h light-dark cycle in a room with temperature and humidity control. Water and rat chow pellets were provided ad libitum throughout the course of the present study.
(§2) Caromax®-D-Pinitol (3-O-methyl-d-chiro-inositol, DPIN, 98% purity) and Caromax®-D-Chiro-inositol (cis-1,2,3-trans-3,5,6-cyclohexanehexol, DCI) were provided by Euronutra SL (Málaga, Spain). They were dissolved in water to orally daily administration by drinking and/or gavage at dose of 100 mg/Kg of body weight (BW) in a 1 ml/kg of BW volume to Zucker and Wistar rats for 4 weeks (28 days) and 10 days, respectively (FIG. 1). During the drinking treatments, the concentration of inositols in the water were updated considering the daily increase of BW of the rats and the possible loss of water by evaporation.
(§3) Brain extract. Frozen brain samples (17 mg per sample) were homogenized in 1 mL of cold RIPA lysis buffer (50 mM Tris-HCl pH 7.4, 150 mM NaCl, 0.5% NaDOC, 1 mM EDTA, 1% Triton, 0.1% SDS, 1 mM Na3VO4, 1 mM NaF) supplemented with a protease cocktail (Hoffmann-Roche). The suspension was incubated for 2 hours at 4° C., followed by centrifugation at 12,000 rpm for 15 minutes at 4° C. The supernatant was transferred to a new clean centrifuge tube, and Bradford colorimetric method was used to determine the concentration of the total protein. The protein extracts were diluted 1:1 in loading buffer (DTT 2X) and heated for 5 minutes at 99° C. before being subjected to electrophoresis.
Western Blot Analysis. The tissue protein (10-15 μg) was subjected to electrophoresis on 4-12% Criterion XT Precast Bis-Tris gels (Bio-Rad, USA) for 30 minutes at 80V and 2 h at 150V. […] Bands were quantified by densitometric analysis using ImageJ software (Rasband, WS, ImageJ, US National Institutes of Health, Bethesda, Md., USA). […] The results were expressed as the protein/α-Adaptin ratio or phosphorylated/total protein ratio and normalized to the control group (Y axis represents ‘fold mean of the control values’).
All data are expressed as mean±SEM. […]

[1] = test system: glycogen synthase kinase-3β (GSK-3β); assay: Hippocampal GSK-3β phosphorylation and total level (western blot) after 10 days of oral administration; type: in vivo, Wistar rats; conditions: oral 100 mg/Kg for 10 days, hippocampus
Protocol: as §1, §2, §3
Western Blot Analysis. The tissue protein (10-15 μg) was subjected to electrophoresis on 4-12% Criterion XT Precast Bis-Tris gels (Bio-Rad, USA) for 30 minutes at 80V and 2 h at 150V. Proteins were transferred onto a 0.2 μm nitrocellulose membrane (Bio-Rad, USA) for 1 h at 80V by wet transfer equipment. The membrane was washed twice for 5 min in TBST (10 mM Tris-HCl, 150 mM NaCl, 0.1% Tween 20, pH 7.6) and blocked with 2% Bovine Serum Albumin-Tris Buffered Saline Tween 20 (BSA-TBST) for one hour at room temperature on a shaker platform. Subsequently, the membrane was incubated with respective primary antibodies overnight at 4° C. diluted in 2% BSA-TBST (Table 2 for additional information). The following day, the membrane was washed three times for 5 min with TBST. An appropriate HRP conjugated rabbit/mouse secondary antibody (Promega) was diluted 1:10000 in 2% BSA-TST and incubated with the membrane for 1 h shaking at room temperature. Finally, the membrane was washed as above and exposed to chemiluminescent reagent (Santa Cruz, Biotechnology Inc.) for 5 min. Stripping/reproving steps were used when necessary. Respective membrane bound protein was then visualized by Chemiluminescence (ChemiDoc Imaging System, Bio-Rad). Bands were quantified by densitometric analysis using ImageJ software (Rasband, WS, ImageJ, US National Institutes of Health, Bethesda, Md., USA). Normalization was performed using a reference protein of the same membrane, the α-Adaptin. The results were expressed as the protein/α-Adaptin ratio or phosphorylated/total protein ratio and normalized to the control group (Y axis represents ‘fold mean of the control values’).
All data are expressed as mean±SEM. Statistical analysis was undertaken for studies where each group size was of, at least, n=5. […]

Ghrelin = assay: Plasma ghrelin (ELISA) after acute oral gavage in fasted rats; type: in vivo; conditions: oral 500 mg/kg, adult male Wistar rats, FIG. 3A / FIG. 4
Protocol: The protocol was approved by the Ethics Committee for Animal Experiments of the University of Malaga.
D-Pinitol (3-0-methyl-D-chiro-inositol) was generously provided by EURONUTRA SL (https://www.euronutra.com/, Malaga, Spain), in the form of crystalline fine powder (lot: PPN-M0201). For acute treatments, D-Pinitol was dissolved in water to be administered by gavage (orally) at different concentrations (100 mg/Kg and 500 mg/Kg), drug was administered at a volume of 1 ml/kg.
After 18 hours of fasting, D-Pinitol dissolved in water was administered acutely by gavage (100 mg/kg in a first study, and 500 mg/kg in a subsequent study). After administration, the animals were sacrificed in groups at different times (being time 0 the administration of D-Pinitol). For the first study (100 mg/kg), groups of animals were sacrificed at times: 10, 20, 30, 60, 120, 240 and 360 minutes after administration; for the second study (500 mg/kg), animals were sacrificed at times: 60, 120 and 240 minutes after administration. As a control group, a group was administered only with water (by gavage).
Animals were anesthetized with sodium pentobarbital (50 mg/Kg, i.p.), blood, brain and liver samples were collected. Blood was centrifuged (2100 g for 8 min, 4° C.) and the plasma kept for further analysis. Liver and brain samples were flash-frozen in liquid N2, then stored at −80° C. until further analysis.
The plasma levels of insulin and ghrelin were determined with an enzyme-linked immunosorbent assay (ELISA) method using commercial kits: EMD Millipore Corporation (Billerica, Mass., USA) Cat. #EZRMI-13K and Cat. #EZRGRT-91K, respectively. Glucagon levels in plasma was determined with a Glucagon Enzyme Immunoassay (EIA) Kit: Cat. #RAB0202 Sigma-Aldrich (Saint Louis, Mo., USA). All serum samples were assayed in duplicate within one assay, and results were expressed in terms of the particular standard hormone.

For OC1C(O)C(O)C(O)C(O)C1O [DCI, (1R,2R,3S,4S,5S,6S)-cyclohexane-1,2,3,4,5,6-hexol], the “quantity of phospho-tau (AT8: Ser202, Thr205) compared with vehicle group” value (tau protein; FIG. 7A.1) was “dropped to more than half”, the “relative protein levels of total tau compared with vehicle group” value (tau protein; FIG. 7A.2) was “rise” and the “GSK-3β serine-9 phosphorylation” value ([1]; FIG. 9A.1) was “no effect”. For the same compound, the “GSK-3β tyrosine-216 phosphorylation” value ([1]; FIG. 9A.2) was “no effect”, the “GSK-3β kinase activity (Ser9/Tyr216)” value ([1]; FIG. 9A.3) was “neither enhance nor inhibition” and the “circulating plasma Ghrelin concentration” value (Ghrelin) was “enhances”.
